Measured values from patent US20020099086A1, “Use of extracts from aristolochia in the treatment of AIDS” (PROTEOME SCIENCES PLC, priority 1998, published 2002).

How the values were obtained:
[1] = test system: brine shrimp; experiment: Brine shrimp bioassay (cytotoxicity); type: in vivo; conditions: for LC50: brine shrimp, 24 hours
Protocol: The cytotoxicity of compounds isolated from Aristolochia taliscana was assayed using the well known brine shrimp bioassay. The cytotoxicities of compounds of the invention, expressed as percentage “death rates” after 24 hours, at varying concentrations, are shown in Table 8 below.

[2] = test system: Rhizoctonia solani; experiment: Antifungal plate diffusion method; type: cell-based; conditions: 150 microgramme aliquot spotted onto plate
Protocol: (§1) The antifungal activities of compounds of the invention was determined using a plate diffusion method. Plates containing medium and a fungal species were made up and 150 microgramme aliquots of a test compound of the invention were spotted onto the plate. The diameter of inhibition of fungal growth around the test compound was then determined.

[3] = test system: Saprolegnia asterophora; experiment: Antifungal plate diffusion method; type: cell-based; conditions: 150 microgramme aliquot spotted onto plate
Protocol: as §1

[4] = test system: Botryis cinerea; experiment: Antifungal plate diffusion method; type: cell-based; conditions: 150 microgramme aliquot spotted onto plate
Protocol: as §1

[5] = test system: Salmonella typhimurium strain TA 100; experiment: Ames bio-assay, antimutagenic activity against 2-amino-anthracene (2-AA) with S9 Mix; type: cell-based; conditions: for Residual mutagenic activity (%) observed for 2-AA: 1 μg 2-AA per plate, S9 Mix
Protocol: (§2) The four major constituents of the benzene extract from Aristolochia taliscana roots—eupomatenoid-7 (7), eupomatenoid-1 (8), eupomatenoid-8 (17), Licarin-A (16)—were tested for their mutagenic and antimutagenic properties using the Ames bio-assay (Maron, D. M. and Ames, B. N., Mutation reasearch, 1983, 113, 173). The test compounds have the following structural formula: [drawing 11]
(§3) Salmonella typhimurium strain TA 100 was used as the test organism and 2-amino-anthracene (2-AA) and 2-nitrofluorene (2-NF) as standard mutagens, of which 1 μg were added to each test plate. In the experiments with 2-AA, “S9 Mix” (derived from phenobarbital treated rat liver cells (De Flora, S., Camoirana, A., D'Agostini, F. and Balansky, R., Mutation Research, 1992, 267, 183) was also added.

[6] = test system: Salmonella typhimurium strain TA 100; experiment: Ames bio-assay, antimutagenic activity against 2-nitrofluorene (2-NF); type: cell-based; conditions: for Residual mutagenic activity (%) observed for 2-NF: 1 μg 2-NF per plate
Protocol: as §2, §3

For `COc1cc2c(cc1C)C(=O)[C@H](O)C[C@@H]2C` [Compound 34, (2R,4S)-2-Hydroxy-6-methoxy-4,7-dimethyl-1-tetralone], the ““Death Rate” After 24 Hours (%)” value ([1]; 10 ppm) was 52%, the ““Death Rate” After 24 Hours (%)” value ([1]; 100 ppm) was 86% and the ““Death Rate” After 24 Hours (%)” value ([1]; 500 ppm) was 100%. The LC50 [1] was under 10 ppm, the “diameter of inhibition of fungal growth, Rhizoctonia solani” value [2] was “++ (++ = 5-10 mm diameter inhibition)” and the “diameter of inhibition of fungal growth, Saprolegnia asterophora” value [3] was “++ (++ = 5-10 mm diameter inhibition)”. The “diameter of inhibition of fungal growth, Botryis cinerea” value [4] was “++ (++ = 5-10 mm diameter inhibition)”.
With `C/C=C/c1cc(OC)c2oc(-c3ccc(O)c(OC)c3)c(C)c2c1` [Eupomatenoid-7 (7), Eupomatenoid-7] the “antimutagenic effect against 2-aminoanthracene (in words)” value [5] was “strong antimutagenic effects”, the “Residual mutagenic activity (%) observed for 2-AA” value ([5]; 50 μg compound added) was 4% and the “Residual mutagenic activity (%) observed for 2-AA” value ([5]; 100 μg compound added) was 0%. For the same compound, the ““Death Rate” After 24 Hours (%)” value ([1]; 10 ppm) was 27%, the ““Death Rate” After 24 Hours (%)” value ([1]; 100 ppm) was 38% and the ““Death Rate” After 24 Hours (%)” value ([1]; 500 ppm) was 38%. For the same compound, the LC50 [1] was over 500 ppm, the “diameter of inhibition of fungal growth, Rhizoctonia solani” value [2] was “−” and the “diameter of inhibition of fungal growth, Saprolegnia asterophora” value [3] was “−”. The “diameter of inhibition of fungal growth, Botryis cinerea” value [4] was “−”, the “antimutagenic effect against 2-nitrofluorene (in words)” value [6] was “strong antimutagenic effects” and the “Residual mutagenic activity (%) observed for 2-NF” value ([6]; 50 μg compound added) was 16%. The “Residual mutagenic activity (%) observed for 2-NF” value ([6]; 100 μg compound added) was 0%.
In the case of `CC=Cc1cc(OC)c2oc(-c3ccc4c(c3)OCO4)c(C)c2c1` [Eupomatenoid-1 (8), Eupomatenoid-1], the “antimutagenic effect against 2-aminoanthracene (in words)” value [5] was “antimutagenically active”, the “Residual mutagenic activity (%) observed for 2-AA” value ([5]; 50 μg compound added) was 49% and the “Residual mutagenic activity (%) observed for 2-AA” value ([5]; 100 μg compound added) was 44%. For the same compound, the ““Death Rate” After 24 Hours (%)” value ([1]; 10 ppm) was 12%, the ““Death Rate” After 24 Hours (%)” value ([1]; 100 ppm) was 16% and the ““Death Rate” After 24 Hours (%)” value ([1]; 500 ppm) was 20%. The LC50 [1] was over 500 ppm, the “diameter of inhibition of fungal growth, Rhizoctonia solani” value [2] was “−” and the “diameter of inhibition of fungal growth, Saprolegnia asterophora” value [3] was “−”. For the same compound, the “diameter of inhibition of fungal growth, Botryis cinerea” value [4] was “−”, the “antimutagenic effect against 2-nitrofluorene (in words)” value [6] was “not against 2-NF” and the “Residual mutagenic activity (%) observed for 2-NF” value ([6]; 50 μg compound added) was 99%. For the same compound, the “Residual mutagenic activity (%) observed for 2-NF” value ([6]; 100 μg compound added) was 93%.
With `COc1cc(/C=C/CO)ccc1O` [Coniferyl alcohol (29), Coniferyl alcohol] the ““Death Rate” After 24 Hours (%)” value ([1]; 10 ppm) was 0%, the ““Death Rate” After 24 Hours (%)” value ([1]; 100 ppm) was 0% and the ““Death Rate” After 24 Hours (%)” value ([1]; 500 ppm) was 15%. The LC50 [1] was over 500 ppm, the “diameter of inhibition of fungal growth, Rhizoctonia solani” value [2] was “−” and the “diameter of inhibition of fungal growth, Saprolegnia asterophora” value [3] was “−”. For the same compound, the “diameter of inhibition of fungal growth, Botryis cinerea” value [4] was “−”.
For “(+)(2R, 3R)-Dihydrocarinatidin [Dihydrocarinatidine (21)]”, the ““Death Rate” After 24 Hours (%)” value ([1]; 10 ppm) was 26%, the ““Death Rate” After 24 Hours (%)” value ([1]; 100 ppm) was 53% and the ““Death Rate” After 24 Hours (%)” value ([1]; 500 ppm) was 80%. For the same compound, the LC50 [1] was “ca. 120 ppm”, the “diameter of inhibition of fungal growth, Rhizoctonia solani” value [2] was “+ (+ = 5 mm diameter inhibition)” and the “diameter of inhibition of fungal growth, Saprolegnia asterophora” value [3] was “+ (+ = 5 mm diameter inhibition)”. The “diameter of inhibition of fungal growth, Botryis cinerea” value [4] was “+ (+ = 5 mm diameter inhibition)”.
In the case of `C=C1/C=C/[C@@H](C(C)C)CC/C(C)=C/CC1` [E-Germacrene D (38), ent-Germacrene-D], the ““Death Rate” After 24 Hours (%)” value ([1]; 10 ppm) was 0%, the ““Death Rate” After 24 Hours (%)” value ([1]; 100 ppm) was 39% and the ““Death Rate” After 24 Hours (%)” value ([1]; 500 ppm) was 100%. For the same compound, the LC50 [1] was “ca. 126 ppm”, the “diameter of inhibition of fungal growth, Rhizoctonia solani” value [2] was “+ (+ = 5 mm diameter inhibition)” and the “diameter of inhibition of fungal growth, Saprolegnia asterophora” value [3] was “−”. The “diameter of inhibition of fungal growth, Botryis cinerea” value [4] was “+ (+ = 5 mm diameter inhibition)”.
Compound `COc1cc(C2(C)COc3c(OC)cc(C=O)cc32)ccc1O` (stereo not shown) has a melting point of 162 to 165 °C.
With `COc1cc(C=O)ccc1O` [Vanillin (31), Vanillin] the ““Death Rate” After 24 Hours (%)” value ([1]; 10 ppm) was 5%, the ““Death Rate” After 24 Hours (%)” value ([1]; 100 ppm) was 0% and the ““Death Rate” After 24 Hours (%)” value ([1]; 500 ppm) was 12%. The LC50 [1] was over 500 ppm, the “diameter of inhibition of fungal growth, Rhizoctonia solani” value [2] was “−” and the “diameter of inhibition of fungal growth, Saprolegnia asterophora” value [3] was “−”. The “diameter of inhibition of fungal growth, Botryis cinerea” value [4] was “−”.
For `COc1ccc2cc3c4c(cc(OC)c(OC)c4c2c1)C(=O)N3` [Aristolactam B (3), Aristolactam B III], the ““Death Rate” After 24 Hours (%)” value ([1]; 10 ppm) was 5%, the ““Death Rate” After 24 Hours (%)” value ([1]; 100 ppm) was 9% and the ““Death Rate” After 24 Hours (%)” value ([1]; 500 ppm) was 29%. For the same compound, the LC50 [1] was over 500 ppm, the “diameter of inhibition of fungal growth, Rhizoctonia solani” value [2] was “+ (+ = 5 mm diameter inhibition)” and the “diameter of inhibition of fungal growth, Saprolegnia asterophora” value [3] was “−”. For the same compound, the “diameter of inhibition of fungal growth, Botryis cinerea” value [4] was “−”.
In the case of `C/C=C/c1cc(OC)c2c(c1)[C@H](C)[C@@H](c1ccc(O)c(OC)c1)O2` [Licarin-A (16), Licarin-A], the “antimutagenic effect against 2-aminoanthracene (in words)” value [5] was “antimutagenically active”, the “Residual mutagenic activity (%) observed for 2-AA” value ([5]; 50 μg compound added) was 31% and the “Residual mutagenic activity (%) observed for 2-AA” value ([5]; 100 μg compound added) was 6%. For the same compound, the ““Death Rate” After 24 Hours (%)” value ([1]; 10 ppm) was 93%, the ““Death Rate” After 24 Hours (%)” value ([1]; 100 ppm) was 93% and the ““Death Rate” After 24 Hours (%)” value ([1]; 500 ppm) was 96%. The LC50 [1] was under 10 ppm, the “diameter of inhibition of fungal growth, Rhizoctonia solani” value [2] was “++ (++ = 5-10 mm diameter inhibition)” and the “diameter of inhibition of fungal growth, Saprolegnia asterophora” value [3] was “−”. For the same compound, the “diameter of inhibition of fungal growth, Botryis cinerea” value [4] was “−”, the “antimutagenic effect against 2-nitrofluorene (in words)” value [6] was “not against 2-NF” and the “Residual mutagenic activity (%) observed for 2-NF” value ([6]; 50 μg compound added) was 94%. For the same compound, the “Residual mutagenic activity (%) observed for 2-NF” value ([6]; 100 μg compound added) was 85%.
In the case of `CC=Cc1cc(OC)c2c(c1)C(C)C(c1ccc3c(c1)OCO3)O2` (single isomer, unassigned; (-)) [Eupomatenoid-8 (17)], the “antimutagenic effect against 2-aminoanthracene (in words)” value [5] was “did not show any antimutagenic effect”, the “Residual mutagenic activity (%) observed for 2-AA” value ([5]; 50 μg compound added) was 90% and the “Residual mutagenic activity (%) observed for 2-AA” value ([5]; 100 μg compound added) was 73%. For the same compound, the ““Death Rate” After 24 Hours (%)” value ([1]; 10 ppm) was 9%, the ““Death Rate” After 24 Hours (%)” value ([1]; 100 ppm) was 27% and the ““Death Rate” After 24 Hours (%)” value ([1]; 500 ppm) was 42%. The LC50 [1] was over 500 ppm, the “diameter of inhibition of fungal growth, Rhizoctonia solani” value [2] was “−” and the “diameter of inhibition of fungal growth, Saprolegnia asterophora” value [3] was “−”. The “diameter of inhibition of fungal growth, Botryis cinerea” value [4] was “−”, the “antimutagenic effect against 2-nitrofluorene (in words)” value [6] was “did not show any antimutagenic effect” and the “Residual mutagenic activity (%) observed for 2-NF” value ([6]; 50 μg compound added) was 100%. The “Residual mutagenic activity (%) observed for 2-NF” value ([6]; 100 μg compound added) was 95%.
With `COc1cc([C@@H]2c3cc4c(cc3[C@H](O)[C@H]3COC(=O)[C@H]23)OCO4)cc(OC)c1OC` [Podophyllotoxin, reference compound] the ““Death Rate” After 24 Hours (%)” value ([1]; 10 ppm) was 74%, the ““Death Rate” After 24 Hours (%)” value ([1]; 100 ppm) was 93% and the ““Death Rate” After 24 Hours (%)” value ([1]; 500 ppm) was 100%. The LC50 [1] was under 10 ppm.
For `C=CC(O)c1cc(OC)c2oc(-c3ccc(O)c(OC)c3)c(C)c2c1` (racemic), the melting point was 164 to 167 °C.
With Aristolactam C III [Aristolactam C (4)] the ““Death Rate” After 24 Hours (%)” value ([1]; 10 ppm) was 0%, the ““Death Rate” After 24 Hours (%)” value ([1]; 100 ppm) was 0% and the ““Death Rate” After 24 Hours (%)” value ([1]; 500 ppm) was 3%. For the same compound, the LC50 [1] was over 500 ppm, the “diameter of inhibition of fungal growth, Rhizoctonia solani” value [2] was “+ (+ = 5 mm diameter inhibition)” and the “diameter of inhibition of fungal growth, Saprolegnia asterophora” value [3] was “++ (++ = 5-10 mm diameter inhibition)”. The “diameter of inhibition of fungal growth, Botryis cinerea” value [4] was “+ (+ = 5 mm diameter inhibition)”.
In the case of `C/C=C/c1cc(OC)c2oc(-c3ccc(O)c(OC)c3)c(CO)c2c1`, the melting point was 175 to 179 °C.
Work on `COc1cc(-c2oc3c(OC)cc(/C=C/CO)cc3c2C)ccc1O` yielded a melting point of 180 to 183 °C.
